The source made the active and inactive calls. The calls are words filed in the database; no cut-off is given here.
How the values were obtained:
[1] = Cytotoxicity against human RPMI8226 cells assessed as growth level at 10 uM after 48 hrs by SRB assay; format: functional, RPMI-8226
EKVX = assay: Cytotoxicity against human EKVX cells assessed as growth level at 10 uM after 48 hrs by SRB assay; format: functional
[2] = Cytotoxicity against human HOP92 cells assessed as growth level at 10 uM after 48 hrs by SRB assay; format: functional, HOP-92
[3] = Cytotoxicity against human COLO205 cells assessed as growth level at 10 uM after 48 hrs by SRB assay; format: functional, COLO 205
[4] = Cytotoxicity against human HCC2998 cells assessed as growth level at 10 uM after 48 hrs by SRB assay; format: functional, HCC 2998
HT-29 = assay: Cytotoxicity against human HT-29 cells assessed as growth level at 10 uM after 48 hrs by SRB assay; format: functional
KM12 = assay: Cytotoxicity against human KM12 cells assessed as growth level at 10 uM after 48 hrs by SRB assay; format: functional
M14 [5] = assay: Cytotoxicity against human M14 cells assessed as growth level at 10 uM after 48 hrs by SRB assay; format: functional
SK-MEL-28 [6] = assay: Cytotoxicity against human SK-MEL-28 cells assessed as growth level at 10 uM after 48 hrs by SRB assay; format: functional
[7] = Cytotoxicity against human OVCAR5 cells assessed as growth level at 10 uM after 48 hrs by SRB assay; format: functional, OVCAR-5
[8] = Cytotoxicity against human OVCAR8 cells assessed as growth level at 10 uM after 48 hrs by SRB assay; format: functional, OVCAR-8
[9] = Cytotoxicity against human NCI-ADR-RES cells assessed as growth level at 10 uM after 48 hrs by SRB assay; format: functional
[10] = Cytotoxicity against human SKOV3 cells assessed as growth level at 10 uM after 48 hrs by SRB assay; format: functional, SK-OV-3
A498 [11] = assay: Cytotoxicity against human A498 cells assessed as growth level at 10 uM after 48 hrs by SRB assay; format: functional
[12] = Cytotoxicity against human Caki1 cells assessed as growth level at 10 uM after 48 hrs by SRB assay; format: functional, CAKI-1
[13] = Cytotoxicity against human TK10 cells assessed as growth level at 10 uM after 48 hrs by SRB assay; format: functional, TK-10
MDA-MB-231 = assay: Cytotoxicity against human MDA-MB-231 cells assessed as growth level at 10 uM after 48 hrs by SRB assay; format: functional
[14] = Cytotoxicity against human BT549 cells assessed as growth level at 10 uM after 48 hrs by SRB assay; format: functional, BT-549
T47D [15] = assay: Cytotoxicity against human T47D cells assessed as growth level at 10 uM after 48 hrs by SRB assay; format: functional
CCRF-CEM = assay: Cytotoxicity against human CCRF-CEM cells assessed as growth inhibition at 10 uM after 48 hrs by SRB assay; format: functional; conditions: read-out: GI
[16] = Cytotoxicity against human HL-60(TB) cells assessed as growth inhibition at 10 uM after 48 hrs by SRB assay; format: functional; conditions: HL-60, 48 h, read-out: GI
NCI-H322M = assay: Cytotoxicity against human NCI-H322M cells assessed as growth inhibition at 10 uM after 48 hrs by SRB assay; format: functional; conditions: for inhibition of growth at 10 µM: read-out: GI
NCI-H460 = assay: Cytotoxicity against human NCI-H460 cells assessed as growth inhibition at 10 uM after 48 hrs by SRB assay; format: functional; conditions: NCI-H460, 48 h, read-out: GI
[17] = Cytotoxicity against human COLO205 cells assessed as growth inhibition at 10 uM after 48 hrs by SRB assay; format: functional; conditions: COLO 205, 48 h, read-out: GI
[18] = Cytotoxicity against human HCT116 cells assessed as growth inhibition at 10 uM after 48 hrs by SRB assay; format: functional; conditions: HCT-116, 48 h, read-out: GI
[19] = Cytotoxicity against human HCT15 cells assessed as growth inhibition at 10 uM after 48 hrs by SRB assay; format: functional; conditions: HCT-15, 48 h, read-out: GI
[20] = Cytotoxicity against human SF268 cells assessed as growth inhibition at 10 uM after 48 hrs by SRB assay; format: functional; conditions: SF-268, 48 h, read-out: GI
[21] = Cytotoxicity against human SF539 cells assessed as growth inhibition at 10 uM after 48 hrs by SRB assay; format: functional; conditions: SF-539, 48 h, read-out: GI
[22] = Cytotoxicity against human SNB75 cells assessed as growth inhibition at 10 uM after 48 hrs by SRB assay; format: functional; conditions: SNB-75, 48 h, read-out: GI
M14 [23] = assay: Cytotoxicity against human M14 cells assessed as growth inhibition at 10 uM after 48 hrs by SRB assay; format: functional; conditions: M14, 48 h, read-out: GI
SK-MEL-28 [24] = assay: Cytotoxicity against human SK-MEL-28 cells assessed as growth inhibition at 10 uM after 48 hrs by SRB assay; format: functional; conditions: SK-MEL-28, 48 h, read-out: GI
SK-MEL-5 = assay: Cytotoxicity against human SK-MEL-5 cells assessed as growth inhibition at 10 uM after 48 hrs by SRB assay; format: functional; conditions: SK-MEL-5, 48 h, read-out: GI
[25] = Cytotoxicity against human OVCAR3 cells assessed as growth inhibition at 10 uM after 48 hrs by SRB assay; format: functional; conditions: OVCAR-3, 48 h, read-out: GI
[26] = Cytotoxicity against human OVCAR4 cells assessed as growth inhibition at 10 uM after 48 hrs by SRB assay; format: functional; conditions: OVCAR-4, 48 h, read-out: GI
A498 [27] = assay: Cytotoxicity against human A498 cells assessed as growth inhibition at 10 uM after 48 hrs by SRB assay; format: functional; conditions: A498, 48 h, read-out: GI
ACHN = assay: Cytotoxicity against human ACHN cells assessed as growth inhibition at 10 uM after 48 hrs by SRB assay; format: functional; conditions: read-out: GI
[28] = Cytotoxicity against human Caki1 cells assessed as growth inhibition at 10 uM after 48 hrs by SRB assay; format: functional; conditions: CAKI-1, 48 h, read-out: GI
[29] = Cytotoxicity against human RXF393 cells assessed as growth inhibition at 10 uM after 48 hrs by SRB assay; format: functional; conditions: RXF 393, 48 h, read-out: GI
[30] = Cytotoxicity against human TK10 cells assessed as growth inhibition at 10 uM after 48 hrs by SRB assay; format: functional; conditions: TK-10, 48 h, read-out: GI
[31] = Cytotoxicity against human PC3 cells assessed as growth inhibition at 10 uM after 48 hrs by SRB assay; format: functional; conditions: PC-3, 48 h, read-out: GI
[32] = Cytotoxicity against human BT549 cells assessed as growth inhibition at 10 uM after 48 hrs by SRB assay; format: functional; conditions: BT-549, 48 h, read-out: GI
T47D [33] = assay: Cytotoxicity against human T47D cells assessed as growth inhibition at 10 uM after 48 hrs by SRB assay; format: functional; conditions: read-out: GI
K562 = assay: Cytotoxicity against human K562 cells assessed as growth level at 10 uM after 48 hrs by SRB assay; format: functional
[34] = Cytotoxicity against human SNB19 cells assessed as growth inhibition at 10 uM after 48 hrs by SRB assay; format: functional; conditions: SNB-19, 48 h, read-out: GI

C=C1CC[C@@H]2[C@](C)(COC(C)=O)[C@H](OC(C)=O)CC[C@@]2(C)[C@@H]1CC(NC1CCCC1)C1=CCOC1=O (stereo partly specified)
Activity [1]: 37.5% | Activity (EKVX): 52.44% | Activity [2]: 25.23% | Activity [3]: 75.23% | Activity [4]: 90.35% | Activity (HT-29): 75.54% | Activity (KM12): 74.46% | Activity (M14 [5]): 79.06% | Activity (SK-MEL-28 [6]): 91.05% | Activity [7]: 105.62% | Activity [8]: 53.68% | Activity [9]: 68.47% | Activity [10]: 87.88% | Activity (A498 [11]): 68% | Activity [12]: 60.7% | Activity [13]: 87.06% | Activity (MDA-MB-231): 80.39% | Activity [14]: 55.62% | Activity (T47D [15]): 50.85% | inhibition of growth at 10 µM (CCRF-CEM): 36.5% | inhibition of growth at 10 µM [16]: 57.3% | growth inhibition (GI) (NCI-H322M): inactive | inhibition of growth at 10 µM (NCI-H460): 25.2% | inhibition of growth at 10 µM [17]: 24.8% | inhibition of growth at 10 µM [18]: 55.3% | inhibition of growth at 10 µM [19]: 33% | inhibition of growth at 10 µM [20]: 23.3% | inhibition of growth at 10 µM [21]: 10.6% | inhibition of growth at 10 µM [22]: 32% | inhibition of growth at 10 µM (M14 [23]): 20.9% | inhibition of growth at 10 µM (SK-MEL-28 [24]): 8.95% | inhibition of growth at 10 µM (SK-MEL-5): 65.7% | inhibition of growth at 10 µM [25]: 31% | inhibition of growth at 10 µM [26]: 41.6% | inhibition of growth at 10 µM (A498 [27]): 32% | inhibition of growth at 10 µM (ACHN): 21.5% | inhibition of growth at 10 µM [28]: 39.3% | inhibition of growth at 10 µM [29]: 22% | inhibition of growth at 10 µM [30]: 12.9% | inhibition of growth at 10 µM [31]: 55.3% | inhibition of growth at 10 µM [32]: 44.4% | inhibition of growth at 10 µM (T47D [33]): 49.1% | Activity (K562): 48.3%

C=C1CC[C@@H]2[C@](C)(COC(C)=O)[C@H](OC(C)=O)CC[C@@]2(C)[C@@H]1CC(NCc1ccccc1)C1=CCOC1=O (mixture of isomers)
Activity [1]: 3.18% | Activity (EKVX): 53.91% | Activity [2]: 41.66% | Activity [3]: 45.59% | Activity [4]: 93.69% | Activity (KM12): 39.08% | Activity (M14 [5]): 42.07% | Activity (SK-MEL-28 [6]): 68.59% | Activity [7]: 101.59% | Activity [8]: 28.22% | Activity [9]: 23.47% | Activity [10]: 79.25% | Activity (A498 [11]): 56.22% | Activity [12]: 49.62% | Activity (MDA-MB-231): 64.69% | Activity [14]: 28.11% | Activity (T47D [15]): 14.23% | inhibition of growth at 10 µM (CCRF-CEM): 79.1% | inhibition of growth at 10 µM [16]: 9.93% | inhibition of growth at 10 µM (NCI-H322M): 23% | inhibition of growth at 10 µM (NCI-H460): 51.6% | inhibition of growth at 10 µM [17]: 54.4% | inhibition of growth at 10 µM [18]: 57.7% | inhibition of growth at 10 µM [19]: 59% | inhibition of growth at 10 µM [20]: 37.9% | inhibition of growth at 10 µM [21]: 20.5% | inhibition of growth at 10 µM [34]: 31.8% | inhibition of growth at 10 µM [22]: 23.1% | inhibition of growth at 10 µM (M14 [23]): 57.9% | inhibition of growth at 10 µM (SK-MEL-28 [24]): 31.4% | inhibition of growth at 10 µM [25]: 68.2% | inhibition of growth at 10 µM [26]: 64.1% | inhibition of growth at 10 µM (A498 [27]): 43.8% | inhibition of growth at 10 µM (ACHN): 53.6% | inhibition of growth at 10 µM [28]: 50.4% | inhibition of growth at 10 µM [29]: 25.7% | inhibition of growth at 10 µM [31]: 89.9% | inhibition of growth at 10 µM [32]: 71.9% | inhibition of growth at 10 µM (T47D [33]): 85.8% | Activity (K562): 24.65%

C=C1CC[C@@H]2[C@](C)(COC(C)=O)[C@H](OC(C)=O)CC[C@@]2(C)[C@@H]1CC(NCc1cccc(Cl)c1)C1=CCOC1=O (mixture of isomers)
Activity [1]: 27.25% | Activity (EKVX): 77.89% | Activity [2]: 66.34% | Activity [3]: 36.77% | Activity [4]: 84.55% | Activity (HT-29): 25.54% | Activity (KM12): 46.76% | Activity (M14 [5]): 55.02% | Activity (SK-MEL-28 [6]): 76.6% | Activity [7]: 99.69% | Activity [8]: 42.73% | Activity [9]: 60.33% | Activity [10]: 73.11% | Activity (A498 [11]): 64.78% | Activity [12]: 48.33% | Activity [13]: 63.29% | Activity (MDA-MB-231): 65% | Activity [14]: 49.66% | Activity (T47D [15]): 50.73% | inhibition of growth at 10 µM (CCRF-CEM): 57.7% | inhibition of growth at 10 µM [16]: 78.4% | inhibition of growth at 10 µM (NCI-H322M): 24.6% | inhibition of growth at 10 µM (NCI-H460): 65.2% | inhibition of growth at 10 µM [17]: 63.2% | inhibition of growth at 10 µM [18]: 64.1% | inhibition of growth at 10 µM [19]: 62.3% | inhibition of growth at 10 µM [20]: 46.7% | inhibition of growth at 10 µM [21]: 25.9% | inhibition of growth at 10 µM [34]: 44.4% | inhibition of growth at 10 µM [22]: 14.1% | inhibition of growth at 10 µM (M14 [23]): 45% | inhibition of growth at 10 µM (SK-MEL-28 [24]): 23.4% | inhibition of growth at 10 µM [25]: 52.6% | inhibition of growth at 10 µM [26]: 49.6% | inhibition of growth at 10 µM (A498 [27]): 35.2% | inhibition of growth at 10 µM (ACHN): 58.4% | inhibition of growth at 10 µM [28]: 51.7% | inhibition of growth at 10 µM [29]: 49.5% | inhibition of growth at 10 µM [30]: 36.7% | inhibition of growth at 10 µM [31]: 69.9% | inhibition of growth at 10 µM [32]: 50.3% | inhibition of growth at 10 µM (T47D [33]): 49.3% | Activity (K562): 18.48%
